Source: patent publication US20200222377A1, “Methods Of Enhancing And/Or Stabilizing Cardiac Function In Patients With Fabry Disease” (Amicus Therapeutics, Inc., priority 2017, published 2020)

How the values were obtained:
[1] = system: ERT-naïve Fabry patients; test: Phase 3 study in ERT-naïve Fabry patients: safety analysis and adverse events
Method: (§1) Study Design. Following eligibility-baseline assessments (2 months), patients were randomized to Stage 1—6 months of double-blind administration of 150 mg migalastat hydrochloride or placebo every other day. All patients completing Stage 1 were eligible to receive open-label migalastat in Stage 2 (months 6-12) and for an additional year (months 13-24) thereafter. The primary objective was to compare the effect of migalastat to placebo on kidney GL-3 as assessed by histological scoring of the number of inclusions in interstitial capillaries after 6 months of treatment. The secondary objectives of Stage 1 were to compare the effect of migalastat to placebo on urine GL-3 levels, on renal function, 24-hours urinary protein, and on safety and tolerability. The tertiary objectives were cardiac function, patient-reported outcomes, exploratory kidney analyses, and white blood cell α-Gal A activity. Study completers were eligible to enroll in the open-label extension study for up to 5 years.
(§2) Safety Analysis and Adverse Events. Randomized patients receiving ≥1 dose were included in the safety analysis, which comprised vital signs, physical exams, electrocardiograms, clinical labs, and adverse events.

[2] = system: ERT-naïve Fabry patients; test: Phase 3 study of migalastat therapy in ERT-naïve Fabry patients: MWFS by echocardiography; assay type: in vivo, human; conditions: for Change from baseline in MWFS, mean / Mean change from baseline in MWFS: amenable mutations
Method: This example describes a Phase 3 study of migalastat therapy in ERT-naïve Fabry patients. Patient Enrollment. […] Study Design. […] Echocardiography. LVMi, left posterior wall thickness, diastolic, interventricular septum thickness, diastolic and other parameters were assessed through blinded, centralized evaluation. Baseline MWFS. At baseline, impaired MWFS (<15% for females and <14% for males) was reported in 9 patients.

[3] = biological target: T1, wild-type α-Gal A and specific mutant forms of α-Gal A (Homo sapiens, UniProt P06280); conditions: selective and reversible binding; cited from earlier work
T1 sequence (P06280 32-429): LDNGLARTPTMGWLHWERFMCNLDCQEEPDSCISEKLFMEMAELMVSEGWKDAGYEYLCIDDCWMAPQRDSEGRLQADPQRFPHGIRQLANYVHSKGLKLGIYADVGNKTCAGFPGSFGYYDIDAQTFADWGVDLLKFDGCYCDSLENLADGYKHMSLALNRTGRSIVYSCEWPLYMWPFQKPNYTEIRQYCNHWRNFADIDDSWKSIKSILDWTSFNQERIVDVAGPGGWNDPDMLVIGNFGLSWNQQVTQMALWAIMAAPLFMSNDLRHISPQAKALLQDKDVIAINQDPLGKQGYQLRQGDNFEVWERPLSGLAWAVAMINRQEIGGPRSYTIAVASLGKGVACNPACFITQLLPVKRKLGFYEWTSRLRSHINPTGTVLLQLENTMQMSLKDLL

[4] = system: ERT-naïve Fabry patients; conditions: human, in vivo
Method: as §1, §2

[5] = system: ERT-experienced Fabry patients; test: Phase 3 study of migalastat therapy in ERT-experienced Fabry patients: MWFS by echocardiography; assay type: in vivo, human
Method: This example describes a Phase 3 study of migalastat therapy in ERT-experienced Fabry patients.
Study Design. Following eligibility-baseline assessments, 57 patients were randomized to 18 months of migalastat therapy or ERT, followed by followed by 12 months of migalastat therapy. The migalastat dosing regimen was 150 mg of migalastat hydrochloride every other day.
Baseline MWFS. At baseline, impaired MWFS (<15% for females and <14% for males) was reported in 19 (14 migalastat, 5 ERT) patients.

[6] = open-label-extension (months 12-24), 6/57 patients
[7] = patients with LVH at baseline, Month 48

In the case of `OC[C@H]1NC[C@H](O)[C@@H](O)[C@H]1O` [migalastat, (2R,3S,4R,5S)-2-(hydroxymethyl) piperdine-3,4,5-triol], the “Patients who experienced serious adverse events” value ([1]; Stage 1, migalastat group) is reported as 2 patients, the “Patients who experienced serious adverse events” value ([1]; Stage 2) is reported as 5 patients and the “Adverse event frequency: procedural pain (related to kidney biopsies)” value ([1]; Stage 2 (months 6-12, open-label), 7/63 patients) is reported as 11%. The “Adverse event frequency: headache” value ([1]; Stage 2 (months 6-12, open-label), 9/63 patients) was 14%, the “Progression to end-stage renal disease, cardiac death, stroke” value ([1]; as defined in Banikazemi et al.) was “no progression to end-stage renal disease, no cardiac death and no stroke” and the “Patients who discontinued migalastat due to serious adverse events” value ([1]; both deemed unrelated to migalastat) was “Two”. The “Serious adverse events assessed as possibly related to migalastat by the investigator” value ([1]; fatigue and paresthesia, same patient, months 12-24, resolved) was “Two”, the “Adverse events leading to migalastat discontinuation” value ([1]; human, in vivo) was “No adverse events led to migalastat discontinuation” and the “Severity of most adverse events” value ([1]; human, in vivo) was “mild or moderate in severity”. The “Vital sign, physical findings, laboratory and ECG parameters” value ([1]; human, in vivo) was “did not reveal any clinically relevant effect”, the Transient ischemic attack ([1]; judged unrelated to migalastat) was “single case” and the “Patients who experienced serious adverse events” value ([1]; open-label-extension) was 11 patients. The “Adverse event frequency: bronchitis” value [1, 6] was 11%, the “Adverse event frequency: headache” value [1, 6] was 11% and the “Adverse event frequency: proteinuria (treatment-emergent)” value ([1]; open-label-extension (months 12-24), 9/57 patients) was 16%. The “Patients in whom 24-hour urine protein remained stable during migalastat treatment” value ([1]; patients with baseline proteinuria <300 mg/24-h) was 23/28, the “Effect on MWFS (in words)” value ([2]; ERT-naïve patients with impaired MWFS at baseline) was “increased MWFS” and the “Change from baseline in MWFS, mean” value ([2]; patients with LVH at baseline, LOCF, over 48 months) was 1.0%. For the same compound, the “Change from baseline in MWFS, mean” value ([2]; patients with LVH at baseline, Month 12) was 0.2%, the “Change from baseline in MWFS, mean” value ([2]; patients with LVH at baseline, Month 24) was 0.9% and the “Change from baseline in MWFS, mean” value ([2]; patients with LVH at baseline, Month 36) was 0.7%. For the same compound, the “Change from baseline in MWFS, mean” value [2, 7] was 0.6%, the “Normalization of MWFS, patients n/N (%)” value [2, 7] was 0 and the “Mean change from baseline in MWFS” value ([2]; patients with impaired MWFS at baseline, LOCF, over 48 months) was 1.9%. The “Mean change from baseline in MWFS” value ([2]; patients with impaired MWFS at baseline, LOCF, over 48 months, listed as Migalastat) was 1.9%, the “Mean change from baseline in MWFS” value ([2]; patients with impaired MWFS at baseline, Month 12, 150 mg migalastat HCl QOD) was 0.1% and the “Mean change from baseline in MWFS” value ([2]; patients with impaired MWFS at baseline, Month 24) was 1.4%. For the same compound, the “Mean change from baseline in MWFS” value ([2]; patients with impaired MWFS at baseline, Month 36) was 1.4%, the “Mean change from baseline in MWFS” value ([2]; patients with impaired MWFS at baseline, Month 48) was 2.4% and the “Normalization of MWFS, patients n/N (%)” value ([2]; patients with impaired MWFS at baseline, Month 12) was 0. The “Binding to the active site of α-Gal A (in words)” value [3] was “high affinity”, the Deaths [4] was “No deaths were reported” and the “Effect on MWFS (in words)” value ([5]; ERT-experienced patients with impaired MWFS at baseline) was “stabilized MWFS”. For the same compound, the “Mean change from baseline in MWFS” value ([5]; patients with impaired MWFS at baseline, LOCF, over 30 months of migalastat therapy, n=14) was −0.2%.
